From patent US20230338337A1, “BIOMARKERS FOR CANCER THERAPY USING MDM2 ANTAGONISTS” (OTSUKA PHARMACEUTICAL CO., LTD., priority 2019, published 2023)
“Also recorded” adds a separate entry of the source.

Experiments:
[1] = system: 210 p53 wild-type cancer cell lines; assay: Cell line panel screen, CellTiter-Glo, 3 days; format: cell-based; settings: ANOVA, adjusted p-value<0.02
Procedure: Genomic features for these cell lines such as somatic mutations, copy number alterations and hypermethylation were obtained from the list of Cancer Functional Events as reported by Garnett et al (2016). ANOVA method was used to identify significant associations of genomics features to Compound 1 drug response.
Cancer cells were cultured in appropriate medium.
Each cell line was tested in triplicates.

[2] = system: OCI-AML3 cells; assay: Induction of apoptosis by cleaved caspase-3 cytometry; format: cell-based; settings: 0.1 μM COMPOUND 1 alone, 72 h
[3] = system: #19 mesothelioma cell line; assay: Induction of activated caspase-3; format: cell-based, human; settings: 72-hour treatment with 1 μM Compound 1
Procedure: (§1) In certain embodiments, the MDM2 antagonist induces apoptosis of the cancer cell. Apoptosis may typically be mediated via activated caspase-3. Induction of apoptosis can be determined by detecting cells that are positive for activated caspase-3 following 72-hour treatment with 1 μM of the MDM2 antagonist. […] In certain embodiments, at least 10%, at least 20% or at least 30% of cells staining positive for activated caspase-3 is an indicator of induced apoptosis. […] Active caspase-3 staining kits are commercially-available, for example the “Cleaved Caspase-3 Staining Kit (Red)” available from Abcam (Cambridge, UK) as catalogue number ab65617. The Invitrogen Cell Event dye (C10423) may also be used.
(§2) The extent of Compound 1-induced apoptosis is not predicted from the IC50 values obtained from the Alarmar Blue proliferation assays (Table 1), thus emphasising the impact of grouping cell lines specifically based on their apoptotic potential for subsequent bioinformatics analyses described in the following section.

[4] = system: MESO-7T mesothelioma cell line; assay: Induction of activated caspase-3; format: cell-based, human; settings: 72-hour treatment with 1 μM Compound 1
Procedure: as §1, §2

[5] = system: MESO-50T mesothelioma cell line; assay: Induction of activated caspase-3; format: cell-based, human; settings: 72-hour treatment with 1 μM Compound 1
Procedure: as §1, §2

[6] = system: #26 mesothelioma cell line; assay: Induction of activated caspase-3; format: cell-based, human; settings: 72-hour treatment with 1 μM Compound 1
Procedure: as §1, §2

[7] = system: #52 mesothelioma cell line; assay: Induction of activated caspase-3; format: cell-based, human; settings: 72-hour treatment with 1 μM Compound 1
Procedure: as §1, §2

[8] = system: #18 mesothelioma cell line; assay: Induction of activated caspase-3; format: cell-based, human; settings: 72-hour treatment with 1 μM Compound 1
Procedure: as §1, §2

[9] = system: #12 mesothelioma cell line; assay: Induction of activated caspase-3; format: cell-based, human; settings: 72-hour treatment with 1 μM Compound 1
Procedure: as §1, §2

[10] = system: #24 mesothelioma cell line; assay: Induction of activated caspase-3; format: cell-based, human; settings: 72-hour treatment with 1 μM Compound 1
Procedure: as §1, §2

[11] = system: #40 mesothelioma cell line; assay: Induction of activated caspase-3; format: cell-based, human; settings: 72-hour treatment with 1 μM Compound 1
Procedure: as §1, §2

[12] = system: MESO-29T mesothelioma cell line; assay: Induction of activated caspase-3; format: cell-based, human; settings: 72-hour treatment with 1 μM Compound 1
Procedure: as §1, §2

[13] = system: #35 mesothelioma cell line; assay: Induction of activated caspase-3; format: cell-based, human; settings: 72-hour treatment with 1 μM Compound 1
Procedure: as §1, §2

[14] = system: #2 mesothelioma cell line; assay: Induction of activated caspase-3; format: cell-based, human; settings: 72-hour treatment with 1 μM Compound 1
Procedure: as §1, §2

[15] = system: Caki-1 renal cancer cell line with BAP1 knock-down; assay: CAKI1 shBAP1 apoptotic assay (Annexin V); format: cell-based, human; settings: 72 hours with 1 uM Compound 1; BAP1 loss versus control
Text: 3 independent shRNAs targeting BAP1 were used and BAP1 knock-down levels achieved with 2 independent shRNAs.

[16] = system: primary mesothelioma cell line Meso #24 with BAP1 knockdown; assay: Apoptosis after BAP1 shRNA knockdown; format: cell-based, human; settings: BAP1 knockdown versus control
Text: BAP1 shRNA was used on primary mesothelioma cell line Meso #24 to achieves table BAP1 knockdown.

[17] = system: human patient-derived mesothelioma cell lines; assay: Induction of activated caspase-3, panel; format: cell-based; settings: all 12 cell lines
Procedure: as §1, §2

[18] = system: 12 p53 wild-type, patient-derived mesothelioma cell lines; assay: 72-hour Alamar Blue proliferation assay, panel; format: cell-based; settings: Homo sapiens
Procedure: (§3) For all cell lines the number of viable cells was determined by measuring the conversion of Rezasurin (Alamar Blue) to Resorufin in response to mitochondrial activity of the viable cells. Alamar Blue™ (AbD Serotec/Bio-Rad, Hercules, CA, USA) was added to 10% of the well volume (20 μl/well) towards the end of the treatment period and incubated for a further 8-24 h. The plate was then read at 535 nm (excitation) and 590 nm (emission) on a SpectraMax Gemini reader (Molecular Devices, Sunnyvale, CA, USA). Each well was calculated as percentage of the mean DMSO control.

[19] = system: #19 mesothelioma cell line; assay: 72-hour Alamar Blue proliferation assay; format: cell-based; settings: Homo sapiens, read-out: Mean Compound 1 Proliferation IC50 (μM), cell line #19
Procedure: as §3

[20] = system: MESO-50T mesothelioma cell line; assay: 72-hour Alamar Blue proliferation assay; format: cell-based; settings: Homo sapiens, read-out: Mean Compound 1 Proliferation IC50 (μM), cell line MESO-50T
Procedure: as §3

[21] = system: #52 mesothelioma cell line; assay: 72-hour Alamar Blue proliferation assay; format: cell-based; settings: Homo sapiens, read-out: Mean Compound 1 Proliferation IC50 (μM), cell line #52
Procedure: as §3

[22] = system: #12 mesothelioma cell line; assay: 72-hour Alamar Blue proliferation assay; format: cell-based; settings: Homo sapiens, read-out: Mean Compound 1 Proliferation IC50 (μM), cell line #12
Procedure: as §3

[23] = system: #24 mesothelioma cell line; assay: 72-hour Alamar Blue proliferation assay; format: cell-based; settings: Homo sapiens, read-out: Mean Compound 1 Proliferation IC50 (μM), cell line #24
Procedure: as §3

[24] = system: #40 mesothelioma cell line; assay: 72-hour Alamar Blue proliferation assay; format: cell-based; settings: Homo sapiens, read-out: Mean Compound 1 Proliferation IC50 (μM), cell line #40
Procedure: as §3

[25] = system: MESO-29T mesothelioma cell line; assay: 72-hour Alamar Blue proliferation assay; format: cell-based; settings: Homo sapiens, read-out: Mean Compound 1 Proliferation IC50 (μM), cell line MESO-29T
Procedure: as §3

[26] = system: #35 mesothelioma cell line; assay: 72-hour Alamar Blue proliferation assay; format: cell-based; settings: Homo sapiens, read-out: Mean Compound 1 Proliferation IC50 (μM), cell line #35
Procedure: as §3

[27] = system: #2 mesothelioma cell line; assay: 72-hour Alamar Blue proliferation assay; format: cell-based; settings: Homo sapiens, read-out: Mean Compound 1 Proliferation IC50 (μM), cell line #2
Procedure: as §3

IC50 ([18]; in 7 of the 12 cell lines): < 100 nM
IC50 ([18]; in 11 cell lines): < 400 nM
IC50 [19]: 0.17 µM
IC50 [20]: 0.067 µM
IC50 [21]: 0.076 µM
IC50 [22]: 0.078 µM
IC50 [23]: 0.094 µM
IC50 [24]: 0.0092 µM
IC50 [25]: > 10 µM
IC50 [26]: 0.045 µM
IC50 [27]: 0.062 µM
SMILES: CC[C@@](O)(c1cc(F)c2c(c1)C(=O)N([C@H](c1ccc(Cl)cc1)[C@H](C)C(=O)O)[C@@]2(OC)c1ccc(Cl)cc1)C1CCOCC1 [Compound 1, (2S,3S)-3-(4-chlorophenyl)-3-[(1R)-1-(4-chlorophenyl)-7-fluoro-5-[(1S)-1-hydroxy-1-(oxan-4-yl)propyl]-1-methoxy-3-oxo-2,3-dihydro-1H-isoindol-2-yl]-2-methylpropanoic acid]
sensitivity of cell lines with CDKN2A loss versus wild-type CDKN2A [1]: enhanced sensitivity
level of apoptosis (cleaved caspase-3) [2]: did not induce a high level of apoptosis; also recorded: does not induce substantial levels of cell death by apoptosis
cells staining positive for activated caspase-3 [3]: > 40%
cells staining positive for activated caspase-3 [4]: > 40%
apoptosis (cells positive for activated caspase-3) [5]: < 40%
apoptosis (cells positive for activated caspase-3) [6]: < 40%
cells staining positive for activated caspase-3 [7]: > 40%
apoptosis (cells positive for activated caspase-3) [8]: < 40%
cells staining positive for activated caspase-3 [9]: > 40%
apoptosis (cells positive for activated caspase-3) [10]: < 40%
cells staining positive for activated caspase-3 [11]: > 40%
apoptosis (cells positive for activated caspase-3) [12]: < 40%
apoptosis (cells positive for activated caspase-3) [13]: < 40%
cells staining positive for activated caspase-3 [14]: > 40%
% of cells undergoing apoptosis (Annexin V) [15]: increased apoptosis
apoptosis after Compound 1 treatment [16]: increased apoptosis
activated caspase-3 induction [17]: increase in activated caspase-3 was observed in all cell lines
